The data set can be described thus: viscosity of aqueous glycerol solutions (DV1 Viscometer). Format: physicochemical. The note with it: room temperature (23.5° C.), SC4-21 spindle. The text has this:
Specifically, larger differences in the viscosity between the oil and the aqueous phases will hinder the emulsion formation and promote phase separation. The formulations disclosed herein thus preferably include viscosity modifying agents to increase the viscosity of the aqueous phase and improve the emulsion stability by diminishing the rise of the oil droplets to the surface. Table 3 contain examples of increasing the viscosity of an aqueous solution using glycerol/glycerine. Viscosity modifiers are added to the aqueous phase to increase the viscosity in and attempt to mitigate the difference in viscosity between the oil phase and the aqueous phases and thus promote emulsion stability.

With `OCC(O)CO` [100%, glycerol], the Viscosity is 905.0 cP.

For the origin of these results see patent publication US12303501B2, “Lipophilic active oral film formulation and method of making the same” (INTELGENX CORP., priority 2018, dated 2025).
